The source of these data is patent US8338481B2, “Alkoxyalkyl S-prenylthiosalicylates for treatment of cancer” (Ramot at Tel-Aviv University Ltd., priority 2009, dated 2012).

The test system of assay [1] is U87 cells (human glioblastoma cell line). The note with it: U-87 cells; previously determined (Blum et al., Cancer Research 2005); read-out: IC50 of growth inhibition; cited from earlier work.
Assay [2] relates to Panc-1 cells (human pancreatic carcinoma cell line). The note with it: previously determined (Weisz et al., Oncogene 1999), read-out: IC50 of growth inhibition; cited from earlier work.
Assay [3] deals with U87 cells (human glioblastoma cell line). Description: Inhibition of U87 cell growth (cell counting). The assay is classed as cell-based. The note with it: U-87 cells. On the procedure:
(§1) Human glioblastoma U87 cells were obtained from American Tissue Culture Collection (ATCC) and grown in Dulbecco's modified Eagle medium (DMDM) containing 10% fetal calf serum, 2 mM L-glutamine, 100 U/mL penicillin, and 100 μg/mL streptomycin. The cells were incubated at 37° C. in a humidified atmosphere of 95% air and 5% CO2. Cells were plated in 24-well plates at a density of 5000 cells per well and grown for 24 hours. The medium was then replaced by a medium containing the desired concentration of methoxymethyl S-farnesylthiosalicylic acid and 0.1% DMSO, or by a medium containing 0.1% DMSO (control). Cells were maintained in culture for 5-7 days and then counted. Data are expressed as a percentage: (number cells in drug treated culture/number cells in control×100). Experiment was performed twice in quadruplicates and means±SD are represented graphically in FIG. 2.
(§2) To establish efficacy of the newly synthesized compound FTS-MOME, Applicants prepared cell growth assays using human cancer cell lines. […]
Next, to examine the effects of FTS-MOME on U-87 cell growth (i.e., growth inhibition), the cells were incubated with and without FTS-MOME for five (5) days and the live cells were counted as a percentage of control over concentration of FTS-MOME (μM). […]

The subject of assay [4] is Panc-1 cells (human pancreatic carcinoma cell line). Description: Inhibition of Panc-1 cell growth (cell counting). The assay is classed as cell-based. On the procedure: as §1, with “Human pancreatic cancer Panc-1” for “Human glioblastoma U87”, “in drug-treated” for “in drug treated”, “in control culture×100). Experiments were” for “in control×100). Experiment was”, “FIG. 1.” for “FIG. 2.”
as §2
First, to examine the effects of FTS-MOME on panc-1 cell growth (i.e., growth inhibition), the cells were incubated with and without FTS-MOME for five (5) days and the live cells were counted as a percentage of control over concentration of FTS-MOME (μM). […]

The mark [5] stands for this setting: concentration range of 6-100 μM, five days.

Like-named read-outs stand apart in the source and are kept apart here.

As to `CC(C)=CCC/C(C)=C/CC/C(C)=C/CSc1ccccc1C(=O)O` [FTS, S-trans, trans-farnesylthiosalicylic acid], the IC50 was 50 µM in assay [1] and 35 µM in assay [2].

Consider `COCOC(=O)c1ccccc1SC/C=C(\C)CC/C=C(\C)CCC=C(C)C` [FTS-MOME, methoxymethyl S-farnesylthiosalicylate], for which the IC50 worked out at 15 µM in assay [3] (Homo sapiens, U-87 MG, 120 h, incubated five days, live cells counted as percentage of control, read-out: IC50 (concentration causing 50% inhibition of cell growth)) and 15 µM in assay [4] (Homo sapiens, 120 h, incubated five days, live cells counted as percentage of control, read-out: IC50 (concentration causing 50% inhibition of cell growth)). Besides, the “live cancer cell number” value in assay [3] (setting [5]) and in assay [4] (setting [5]) was “dose-dependent decrease” each time.
